Measurements reported in publication PMC7168933, “Design, Synthesis and Biochemical Evaluation of Novel Ethanoanthracenes and Related Compounds to Target Burkitt’s Lymphoma” (Pharmaceuticals, 2020).
pIC50: −log10 of the molar value.

Tests used:
[1] = test system: MUTU-1 Burkitt lymphoma cell line (EBV+); conditions: 24 h
[2] = test system: MUTU-1 Burkitt lymphoma cell line (EBV+); assay: cells; conditions: Mutu-1, 24 h; for pIC50: read-out: IC50 MUTU-I 24 h; for viability at 1 µM: read-out: MUTU-1 Cell Viability % 1 μM, 1 μM, 24 h; for viability at 10 µM: read-out: MUTU-1 Cell Viability % 10 μM, 10 μM, 24 h
[3] = test system: MUTU-1 Burkitt's lymphoma cell line; assay: FITC Annexin V/PI FACS analysis of apoptosis in MUTU-I cells; assay type: cell-based; conditions: 24 h
Protocol: (§1) BL cells DG-75 and MUTU-1 (750,000) were treated with the specified concentration of the selected compound and incubated for 24 h (MUTU-1) or 48 h (DG-75) with taxol as the positive control. Samples were harvested by centrifugation and the pellets were rinsed with 0.5 mL of Ca^2+ Annexin V binding buffer (0.1 M HEPES, pH 7.4; 1.4 M NaCl; 25 mM CaCl2) each and pelleted again by centrifugation. Supernatants were decanted and the pellets were suspended again in 50 µL FITC Annexin V (diluted 1:33 in Ca^2+ Annexin V binding buffer), the samples were then placed on ice and incubated for 10 min in the dark. After the incubation period 0.5 mL of Ca^2+ Annexin V binding buffer was added and samples were pelleted by centrifugation. The supernatant was decanted and the pellet was suspended in PI solution (500 µL; 0.5 µg/mL). After 1 h, the samples were recorded using a CyAn ADP flow cytometer (Beckman Coulter Inc., Brea, CA, USA). 10,000 cells were analysed with the Flowjo software package. Taxol was used as a positive control for cell death.

[4] = test system: DG-75 Burkitt lymphoma cell line (EBV−, chemoresistant); conditions: 48 h
[5] = test system: DG-75 Burkitt's lymphoma cell line; assay: FITC Annexin V/PI FACS analysis of apoptosis in DG-75 cells; assay type: cell-based; conditions: 48 h
Protocol: as §1

[6] = test system: DG-75 Burkitt lymphoma cell line (EBV−, chemoresistant); assay: cells; conditions: Homo sapiens, DG-75, 48 h; for viability at 1 µM: read-out: DG-75 Cell Viability % 1 μM, 1 μM, 48 h; for viability at 10 µM: read-out: DG-75 Cell Viability % 10 μM, 10 μM, 48 h; for pIC50: read-out: IC50 DG-75 48 h

## O=C1NC(=O)C2C1C1(Cl)c3ccccc3C2(C=C[N+](=O)[O-])c2ccccc21 (centres unmarked) [Compound 13j, (E)-9-Chloro-10-(2-nitrovinyl)-9,10-dihydro-9,10-[3,4]epipyrroloanthracene-12,14-dione]
[1]; 1 μM
  MUTU-1 Cell Viability % 1 μM: 0.70%
[1]
  cell viability in MUTU-I cell line (1 and 10 μM together or concentration not stated): 0.4–13.5%
[2]
  pIC50: 6.60
  viability at 1 µM: < 1%
  viability at 10 µM: 0.62%
[3]
  apoptosis in MUTU-I at 0.5 µM: > 90%
[4]; 1 and 10 μM
  cell viability in DG-75 cell line (1 and 10 μM together or concentration not stated): 0.4–13.5%
[5]
  apoptosis in DG-75 at 10 µM: 90%
[6]
  viability at 1 µM: 12.1%
  viability at 10 µM: 5.9%
  pIC50: 6.11

## N#CC1CC2c3ccccc3C1(/C=C/[N+](=O)[O-])c1ccccc12 (centres unmarked) [Compound 19a, (E)-10-(2-Nitrovinyl)-9,10-dihydro-9,10-ethanoanthracene-11-carbonitrile]
[2]
  pIC50: 6.42
  viability at 1 µM: 9%
  viability at 10 µM: 0%
[3]
  apoptosis in MUTU-I at 0.5 µM: > 90%
[5]
  apoptosis in DG-75 at 10 µM: 87%
[6]
  viability at 1 µM: 20.6%
  viability at 10 µM: 0%
  pIC50: 6.16

## C/C(=C\C12c3ccccc3C(c3ccccc31)C1C(=O)OC(=O)C12)[N+](=O)[O-] (centres unmarked) [Compound 13b, (E)-9-(2-Nitroprop-1-en-1-yl)-9,10-dihydro-9,10-[3,4]furanoanthracene-12,14-dione]
other
  melting point: 256 to 258 °C
[1]
  cell viability in MUTU-I cell line (1 and 10 μM together or concentration not stated): 7–24%
[2]
  viability at 1 µM: 11.7%
  viability at 10 µM: 7.2%
[4]
  DG-75 Cell Viability % 1 μM: 1.1%
[6]
  viability at 1 µM: 1%
  viability at 10 µM: 0.47%

## O=C1OC(=O)C2C1C1c3ccccc3C2(/C=C/[N+](=O)[O-])c2ccccc21 (centres unmarked) [Compound 13a, (E)-9-(2-Nitrovinyl)-9,10-dihydro-9,10-[3,4]furanoanthracene-12,14-dione]
other
  melting point: 244 to 245 °C
[1]
  cell viability in MUTU-I cell line (1 and 10 μM together or concentration not stated): 7–24%
[2]
  viability at 1 µM: 24.4%
  viability at 10 µM: 12.5%
[6]
  viability at 1 µM: 78.5%
  viability at 10 µM: 62.2%

## CC(=O)O[C@H]1C(=O)[C@@]2(C)[C@H]([C@H](OC(=O)c3ccccc3)[C@]3(O)C[C@H](OC(=O)[C@H](O)[C@@H](NC(=O)c4ccccc4)c4ccccc4)C(C)=C1C3(C)C)[C@]1(OC(C)=O)CO[C@@H]1C[C@@H]2O [Taxol, taxol, reference compound]
[1]; 10 μM
  MUTU-1 Cell Viability % 10 μM: 9.8%
[2]
  pIC50: 6.49
  viability at 1 µM: 30.4%
  viability at 10 µM: 10%
[3]; 1 µM
  apoptosis in MUTU-I at 1 µM: 63%
[3]; 10 µM
  apoptosis in MUTU-I at 10 µM: 87%
[4]
  DG-75 Cell Viability % 10 μM: 9.9%
[5]; 1 µM
  apoptosis in DG-75 at 1 µM: 21%
[5]
  apoptosis in DG-75 at 10 µM: 73%
[6]
  viability at 1 µM: 48.8%
  viability at 10 µM: 10%
  pIC50: 5.88

## O=C1NC(=O)C2C1C1c3ccccc3C2(/C=C/[N+](=O)[O-])c2ccccc21 (centres unmarked) [Compound 13g, (E)-9-(2-Nitrovinyl)-9,10-dihydro-9,10-[3,4]epipyrroloanthracene-12,14-dione]
other
  melting point: 176 to 178 °C
[2]
  viability at 1 µM: 0.47%
  viability at 10 µM: 7.2%
[4]
  DG-75 Cell Viability % 1 μM: 1.1%
[6]
  viability at 1 µM: 1%
  viability at 10 µM: 11.7%

## N#C/C=C/C12c3ccccc3C(c3ccccc31)C1C(=O)NC(=O)C12 (centres unmarked) [Compound 23b, (E)-3-(12,14-Dioxo-9,10-[3,4]epipyrroloanthracen-9(10H)-yl)acrylonitrile]
other
  melting point: 289 to 300 °C
[2]
  viability at 1 µM: 79.4%
  viability at 10 µM: 79%
[4]
  DG-75 Cell Viability % 10 μM: 54.1%
[6]
  viability at 1 µM: 101%
  viability at 10 µM: 54%

## N/N=C/C12c3ccccc3C(Cl)(c3ccccc31)C1C(=O)NC(=O)C12 (centres unmarked) [Compound 23i, (E)-9-Chloro-10-(hydrazonomethyl)-9,10-dihydro-9,10-[3,4]epipyrroloanthracene-12,14-dione]
other
  melting point: 241 to 244 °C
[2]
  viability at 1 µM: 102%
  viability at 10 µM: 106%
[4]
  DG-75 Cell Viability % 10 μM: 18.9%
[6]
  viability at 1 µM: 85.8%
  viability at 10 µM: 19%
